Experiments:
[1] = test system: α-ENaC; test: Renal ENaC expression in AngII-infused rats (immunoblotting, qRT-PCR); assay type: in vivo, rat; settings: following AngII infusion
Experimental: FIGS. 28A, 28B, 28C, 28D, 28E, 28F, 28G and 28H show the effect of IMPRO on renal inner medullary ENaC expression during AngThinduced hypertension. The expression of the three subunits of ENaC (α-, β-, and γ-) in the inner medulla of control, AngII and AngII+IM RPO rats was determined by immunobotting (A-E) and qRT-PCR (F-H). N=6 per group. Data are mean+SE.
Renal tissues were lysed and subsequently sonicated in PBS that contained 1% Triton x-100, 250 μM phenylmethanesulfonyl fluoride (PMSF), 2 mM EDTA, and 5 mM dithiothrietol (DTT) (pH 7.5). Protein concentrations were determined by the use of Coomassie reagent. […] of protein for each sample was denatured in boiling water for 10 min, then separated by SDS-PAGE, and transferred onto nitrocellulose membranes. The blots were blocked 1 h with 5% nonfat dry milk in Tris-buffered saline (TBS), followed by incubation for overnight with primary antibody. […] The blots were quantitated by using Imagepro-plus. […]
Epithelial sodium channel (ENaC) is the major sodium channel on the apical membrane of the CD Immunoblotting and qRT-PCR analysis of renal ENaC expression was performed. […] In contrast, α-ENaC protein abundance in the cortex was unaffected. qRT-PCR detected 1.6-fold increase of α-ENaC mRNA expression in the inner medulla, which was abolished by IM PRO (FIG. 28F). […]

[2] = biological target: renal medullary PRR (Rattus norvegicus, UniProt Q6AXS4); test: AngII-induced hypertension in uninephrectomized SD rats, telemetry MAP; assay type: in vivo; settings: AngII 100 ng/kg/min s.c. alone or with intramedullary PRO20 120 μg/kg/d; day 0 MAP 108+5.8
Chain of renal medullary PRR (Q6AXS4 18-350): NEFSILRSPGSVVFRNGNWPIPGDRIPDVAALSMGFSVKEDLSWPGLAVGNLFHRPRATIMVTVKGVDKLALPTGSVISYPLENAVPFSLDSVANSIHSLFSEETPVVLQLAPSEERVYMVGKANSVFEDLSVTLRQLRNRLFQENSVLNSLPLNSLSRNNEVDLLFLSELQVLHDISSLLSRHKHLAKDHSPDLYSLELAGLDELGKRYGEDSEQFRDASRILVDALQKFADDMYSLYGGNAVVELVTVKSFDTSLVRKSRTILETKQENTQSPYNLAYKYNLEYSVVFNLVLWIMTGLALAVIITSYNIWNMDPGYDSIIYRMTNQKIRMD
Experimental: FIGS. 26A, 26B, 26C, 26D, and 26E show the characterization of PRO20 and examination of its effect on AngII-induced hypertension. Comparison of PRO20 (B and D) and the HRP (A and C) in inhibiting prorenin-induced signaling. Primary rat IMCD cells were pretreated for 1 h with PRO20 (1.5 μM) or the HRP (2.0 μM) and then were exposed to 100 nM prorenin for 10 min. ERK1/2 phosphorylation was determined by immunoblotting. (E) Effect of intramedullary delivery of PRO20 on AngII-induced hypertension. Uninephrectomized SD rats were divided into the following three groups: (1) AngII, (2) AngII+IM PRO (intramedullary PRO20 infusion), and (3) AngII+IV PRO20 (intravenous PRO20 infusion). AngII was subcutaneously infused at 100 ng/kg/min via an osmotic mini-pump. IM PRO (PRO20 at 120 μg/kg/d) was performed via a catheter chronically implanted in the renal medulla. To control the spillover, IV PRO (PRO20 at 120 μg/kg/d) was performed via catheterization of jugular vein. Telemetry was performed to monitor mean arterial pressure (MAP) and it was turned on 4 h per day from 5:00 PM to 9:00 PM for 7 days. #p<0.01 vs. intravenous PRO20; *, p<0.05 vs. AngII alone. N=3-6 per group. Data are mean+SE. […]

[3] = Plasma and urinary aldosterone in AngII-infused rats; assay type: in vivo, rat; settings: following AngII infusion
Experimental: FIGS. 31A, B, and C show the role of PRR in AngII-induced aldosterone production in vivo and in vitro. Plasma aldosterone concentrations (A) and urinary aldosterone excretion (B) were determined in control, AngII, AngII+IM PRO20, and AngII+IV PRO20 rats. The direct action of PRO20 in aldosterone regulation was tested in primary culture of rat IMCD cells (C). For the in vitro study, the cells were exposed to vehicle, AngII, or AngII+PRO20 and the medium were assayed for aldosterone release. N=3-6 per group. Data are means±SE.
Under anesthesia, blood was collected puncturing vena cava, and plasma was recovered by centrifugation. At the end of experiments, animals were placed in metabolic cages for urine collections. The renal inner medulla was homogenized in 2.6 mM EDTA, 3.4 mM hydroxyquinoline, 5 mM ammonium acetate, 200 μM PMSF, and 0.256 μM dimercaprol. […] Renin activity in urine, tissue homogenates, and cell culture medium was determined by measurement of AngI generation using an ELISA kit and it was performed in the native condition, active renin content with excessive angiotensinogen, and total renin content with excessive angiotensinogen plus trypsinization as previously described. Aldosterone concentrations in plasma, urine, and cell culture medium were measured using a commercial ELISA kit (Cat#:10004377, Cayman Chemical). […]

Substance: Angiotensin II (DRVYIHPF; Angiotensin-2; UniProt P01019 25-32, looked up) [AngII]
- increase in renal medullary α-ENaC protein abundance ([1]; immunoblotting): 2.2 fold
- increase of α-ENaC mRNA expression in the inner medulla ([1]; qRT-PCR): 1.6 fold
- MAP on day 7 [2]: 164.7+6.2 mmHg
- increase in aldosterone levels in the plasma [3]: 60%
- increase in aldosterone levels in the urine [3]: 3.2 fold
